Test results published in patent US11524934B2, “Phenylamine compounds” (PI INDUSTRIES LTD., priority 2017, dated 2022).

Key:
[1] = tested on: Septoria lycopersici; experiment: Septoria lycopersici (Leaf spot of tomato) in vitro test, radial growth on Potato Dextrose Agar; settings: 168 h, read-out: control
Experimental: Septoria lycopersici (Leaf spot of tomato): Compounds were dissolved in 0.3% DMSO & then added to Potato Dextrose Agar medium just prior to dispensing it into Petri dishes. 5 ml medium with compound in the desired concentration was dispensed into 60 mm sterile petri-plates. After solidification each plate was seeded with 5 mm size mycelial disc taken form periphery of actively growing virulent culture plate. Plates were incubated in growth chambers at 25° C. temperature & 70% Relative Humidity for seven days and radial growth was measured.

[2] = tested on: Alternaria solani; experiment: Alternaria solani (early blight of tomato/potato) in vitro test, radial growth on Potato Dextrose Agar; settings: 168 h, read-out: control
Experimental: (§1) Compounds of present invention were assessed for activity against one or more of the following: Biological Test Examples, in vitro test

[3] = tested on: Phakopsora pachyrhizi; experiment: Phakopsora pachyrhizi test in soybean (in vivo on plants), preventive activity; settings: preventive spray on soybean plants, inoculated one day after treatment, disease severity rated vs untreated check
Experimental: Example 8 (In Vivo on Plants): Phakopsora pachyrhizi Test in Soybean
Compounds were dissolved in 2% DMSO/Acetone & then mixed with water to the calibrated spray volume of 50 ml and poured into the spray bottles for further applications.
To test the preventive activity of compounds, healthy young soybean plants raised in the greenhouse were sprayed with active compound preparation at the stated application rates inside the spray cabinets using hallowcone nozzles. One day after treatment, the plants were inoculated with spore suspension containing 2.1×10^6 Phakopsora pachyrhizi inoculum. The inoculated plants were then kept in greenhouse chamber at 25° C. temperature & 90% Relative Humidity for disease expression.
A visual assessment of compound's performance was carried out by rating the disease severity (0-100% scale) on treated plants on 3, 7, 10 & 15 days after application. Efficacy (% control) of the compounds was calculated by comparing the disease rating in the treatment with the one of the untreated control. The sprayed plants were also assessed for compound's plant compatibility by recording symptoms like necrosis, chlorosis & stunting.

[4] = tested on: Rhizoctonia solani; settings: 168 h, read-out: control
Experimental: Rhizoctonia solani (Rice sheath blight/Potato black scurf): Compounds were dissolved in 0.3% DMSO & then added to Potato Dextrose Agar medium just prior to dispensing it into Petri dishes. 5 ml medium with compound in the desired concentration was dispensed into 60 mm sterile Petri-plates. After solidification each plate was seeded with 5 mm size mycelial disc taken form periphery of actively growing virulent culture plate. Plates were incubated in growth chambers at 25° C. temperature & 60% Relative Humidity for seven days and radial growth was measured.

[5] = tested on: Botrytis cinerea; experiment: Botrytis cinerea (Gray mold) in vitro test, radial growth on Potato Dextrose Agar; settings: 168 h, read-out: control
Experimental: as §1
Botrytis cinerea (Gray mold): Compounds were dissolved in 0.3% DMSO & then added to Potato Dextrose Agar medium just prior to dispensing it into Petri dishes. 5 ml medium with compound in the desired concentration was dispensed into 60 mm sterile Petri-plates. After solidification each plate was seeded with 5 mm size mycelial disc taken form periphery of actively growing virulent culture plate. Plates were incubated in growth chambers at 22° C. temperature & 90% Relative Humidity for seven days and radial growth was measured.

[6] = tested on: Pyricularia oryzae; experiment: microbe, parasite or virus in culture; type: cell-based; settings: 168 h, read-out: control
[7] = tested on: Colletotrichum capsici; experiment: Colletotrichum capsici (anthracnose) in vitro test, radial growth on Potato Dextrose Agar; settings: Colletotrichum truncatum, 168 h, read-out: control
Experimental: Colletotrichum capsici (anthracnose): Compounds were dissolved in 0.3% DMSO & then added to Potato Dextrose Agar medium just prior to dispensing it into Petri dishes. 5 ml medium with compound in the desired concentration was dispensed into 60 mm sterile petri-plates. After solidification each plate was seeded with 5 mm size mycelial disc taken form periphery of actively growing virulent culture plate. Plates were incubated in growth chambers at 25° C. temperature & 60% Relative Humidity for seven days and radial growth was measured.

[8] = tested on: Fusarium culmorum; experiment: Fusarium culmorum (Foot rot of cereals) in vitro test, radial growth on Potato Dextrose Agar; type: cell-based; settings: 168 h, read-out: control

CCN(C)C=Nc1cc(C)c(C(=O)COc2ccc(C)cc2)cc1C [Compound 15, N′-(2,5-dimethyl-4-(2-(p-tolyloxy)acetyl)phenyl)-N-ethyl-N-methylformimidamide]
inhibition of growth at 300 ppm [1]: > 70%
inhibition of growth at 300 ppm [2]: > 70%
pest or weed control at 500 ppm [3]: > 90%
inhibition of growth at 300 ppm [4]: > 70%
inhibition of growth at 300 ppm [5]: > 70%
inhibition of growth at 300 ppm [6]: > 70%
inhibition of growth at 300 ppm [7]: > 70%

CCN(C)C=Nc1cc(C)c(C(=O)COc2cccc(F)c2)cc1C [Compound 9, N-ethyl-N′-(4-(2-(3-fluorophenoxy)acetyl)-2,5-dimethylphenyl)-N-methylformimidamide]
inhibition of growth at 300 ppm [1]: > 70%
inhibition of growth at 300 ppm [2]: > 70%
pest or weed control at 500 ppm [3]: > 90%
inhibition of growth at 300 ppm [4]: > 70%
inhibition of growth at 300 ppm [5]: > 70%
inhibition of growth at 300 ppm [6]: > 70%
inhibition of growth at 300 ppm [7]: > 70%

CCN(C)C=Nc1cc(C)c(C(=O)CN(C)c2ccc(Cl)cc2)cc1C [Compound 84, N′-(4-(N-(4-chlorophenyl)-N-methylglycyl)-2,5-dimethylphenyl)-N-ethyl-N-methylformimidamide]
inhibition of growth at 300 ppm [1]: > 70%
inhibition of growth at 300 ppm [8]: 70%
inhibition of growth at 300 ppm [2]: > 70%
inhibition of growth at 300 ppm [4]: > 70%
inhibition of growth at 300 ppm [5]: > 70%
inhibition of growth at 300 ppm [6]: > 70%
inhibition of growth at 300 ppm [7]: > 70%

CCN(C)C=Nc1cc(C)c(C(=O)COc2c(C)cc(C)cc2Br)cc1C [Compound 89, N′-(4-(2-(2-bromo-4,6-dimethylphenoxy)acetyl)-2,5-dimethylphenyl)-N-ethyl-N-methylformimidamide]
inhibition of growth at 300 ppm [1]: > 70%
inhibition of growth at 300 ppm [2]: > 70%
inhibition of growth at 300 ppm [4]: > 70%
inhibition of growth at 300 ppm [5]: > 70%
inhibition of growth at 300 ppm [6]: > 70%
inhibition of growth at 300 ppm [7]: > 70%

CCN(C)C=Nc1cc(C)c(C(=O)CN(C)c2ccc(C)cc2)cc1C [Compound 92, N′-(2,5-dimethyl-4-(N-methyl-N-(p-tolyl)glycyl)phenyl)-N-ethyl-N-methylformimidamide]
inhibition of growth at 300 ppm [1]: > 70%
inhibition of growth at 300 ppm [2]: > 70%
inhibition of growth at 300 ppm [4]: > 70%
inhibition of growth at 300 ppm [6]: > 70%
inhibition of growth at 300 ppm [7]: > 70%

CCN(C)C=Nc1cc(C)c(C(=O)C(C)(C)Sc2cccc(C)c2)cc1C [Compound 83, N′-(2,5-dimethyl-4-(2-methyl-2-(m-tolylthio)propanoyl)phenyl)-N-ethyl-N-methylformimidamide]
inhibition of growth at 300 ppm [8]: 70%
inhibition of growth at 300 ppm [2]: > 70%
inhibition of growth at 300 ppm [4]: > 70%
inhibition of growth at 300 ppm [5]: > 70%
inhibition of growth at 300 ppm [6]: > 70%
inhibition of growth at 300 ppm [7]: > 70%

CCN(C)C=Nc1cc(C)c(C(=O)CSc2cccc(Br)c2)cc1C [Compound 6, N′-(4-(2-((3-bromophenyl)thio)acetyl)-2,5-dimethylphenyl)-N-ethyl-N-methylformimidamide]
inhibition of growth at 300 ppm [1]: > 70%
inhibition of growth at 300 ppm [2]: > 70%
pest or weed control at 500 ppm [3]: > 90%
inhibition of growth at 300 ppm [4]: > 70%
inhibition of growth at 300 ppm [5]: > 70%
inhibition of growth at 300 ppm [6]: > 70%
inhibition of growth at 300 ppm [7]: > 70%

CCN(C)C=Nc1cc(C)c(C(=O)CSc2cccc(OC)c2)cc1C [Compound 27, N-ethyl-N′-(4-(2-((3-methoxyphenyl)thio)acetyl)-2,5-dimethylphenyl)-N-methylformimidamide]
inhibition of growth at 300 ppm [1]: > 70%
inhibition of growth at 300 ppm [2]: > 70%
inhibition of growth at 300 ppm [4]: > 70%
inhibition of growth at 300 ppm [5]: > 70%
inhibition of growth at 300 ppm [6]: > 70%
inhibition of growth at 300 ppm [7]: > 70%

CCN(C)C=Nc1cc(C)c(C(=O)CSc2cccc(C)c2)cc1C [Compound 5, N′-(2,5-dimethyl-4-(2-(m-tolylthio)acetyl)phenyl)-N-ethyl-N-methylformimidamide]
inhibition of growth at 300 ppm [1]: > 70%
inhibition of growth at 300 ppm [8]: 70%
inhibition of growth at 300 ppm [2]: > 70%
inhibition of growth at 300 ppm [5]: > 70%
inhibition of growth at 300 ppm [6]: > 70%
inhibition of growth at 300 ppm [7]: > 70%

CCN(C)C=Nc1cc(C)c(C(=O)COc2cccc(Br)c2)cc1C [Compound 3, N′-(4-(2-(3-bromophenoxy)acetyl)-2,5-dimethylphenyl)-N-ethyl-N-methylformimidamide]
inhibition of growth at 300 ppm [1]: > 70%
inhibition of growth at 300 ppm [2]: > 70%
inhibition of growth at 300 ppm [4]: > 70%
inhibition of growth at 300 ppm [5]: > 70%
inhibition of growth at 300 ppm [6]: > 70%
inhibition of growth at 300 ppm [7]: > 70%

CCN(C)C=Nc1cc(C)c(C(=O)CSc2cccc(F)c2)cc1C [Compound 4, N-ethyl-N′-(4-(2-((3-fluorophenyl)thio)acetyl)-2,5-dimethylphenyl)-N-methylformimidamide]
inhibition of growth at 300 ppm [1]: > 70%
inhibition of growth at 300 ppm [2]: > 70%
pest or weed control at 500 ppm [3]: > 90%
inhibition of growth at 300 ppm [4]: > 70%
inhibition of growth at 300 ppm [5]: > 70%
inhibition of growth at 300 ppm [6]: > 70%
inhibition of growth at 300 ppm [7]: > 70%

Cc1cc(C(=O)COc2ccccc2Cl)c(C)cc1N=CN(C)C [Compound 109, N′-(4-(2-(2-chlorophenoxy)acetyl)-2,5-dimethylphenyl)-N,N-dimethylformimidamide]
inhibition of growth at 300 ppm [8]: 70%
inhibition of growth at 300 ppm [2]: > 70%
inhibition of growth at 300 ppm [6]: > 70%
inhibition of growth at 300 ppm [7]: > 70%

CCN(C)C=Nc1cc(C)c(C(=O)CSc2ccc(Cl)cc2)cc1C [Compound 29, N′-(4-(2-((4-chlorophenyl)thio)acetyl)-2,5-dimethylphenyl)-N-ethyl-N-methylformimidamide]
inhibition of growth at 300 ppm [1]: > 70%
inhibition of growth at 300 ppm [8]: 70%
inhibition of growth at 300 ppm [2]: > 70%
inhibition of growth at 300 ppm [4]: > 70%
inhibition of growth at 300 ppm [5]: > 70%
inhibition of growth at 300 ppm [6]: > 70%

CCN(C)C=Nc1cc(C)c(C(=O)COc2c(C)cccc2Cl)cc1C [Compound 91, N′-(4-(2-(2-chloro-6-methylphenoxy)acetyl)-2,5-dimethylphenyl)-N-ethyl-N-methylformimidamide]
inhibition of growth at 300 ppm [8]: 70%
inhibition of growth at 300 ppm [2]: > 70%
inhibition of growth at 300 ppm [4]: > 70%
inhibition of growth at 300 ppm [5]: > 70%
inhibition of growth at 300 ppm [6]: > 70%
inhibition of growth at 300 ppm [7]: > 70%

CCN(C)C=Nc1cc(C)c(C(=O)COc2c(Cl)cccc2Cl)cc1C [Compound 86, N′-(4-(2-(2,6-dichlorophenoxy)acetyl)-2,5-dimethylphenyl)-N-ethyl-N-methylformimidamide]
inhibition of growth at 300 ppm [8]: 70%
inhibition of growth at 300 ppm [2]: > 70%
inhibition of growth at 300 ppm [4]: > 70%
inhibition of growth at 300 ppm [5]: > 70%
inhibition of growth at 300 ppm [6]: > 70%
inhibition of growth at 300 ppm [7]: > 70%

CCN(C)C=Nc1cc(C)c(C(=O)Cn2cnnc2)cc1C [Compound 114, N′-(4-(2-(4H-1,2,4-triazol-4-yl)acetyl)-2,5-dimethylphenyl)-N-ethyl-N-methylformimidamide]
inhibition of growth at 300 ppm [8]: 70%
inhibition of growth at 300 ppm [2]: > 70%
inhibition of growth at 300 ppm [4]: > 70%
inhibition of growth at 300 ppm [5]: > 70%
inhibition of growth at 300 ppm [6]: > 70%
inhibition of growth at 300 ppm [7]: > 70%
